From US20220273614A1, “INTRAVENOUS VITAMIN C THERAPY PROTOCOL FOR THE TREATMENT OF CANCER” (Riordan Clinic, priority 2019, published 2022)
“Also recorded” adds a separate entry of the source.

What was measured:
terminal cancer patients [1] = test: Lymphocyte and neutrophil counts and neutrophil-to-lymphocyte ratio in cancer patients on continuous IVC (updated analysis of Riordan trial); assay type: in vivo, human
Procedure: (§1) The second trial of the treatment of cancer patients by continuous infusions was conducted by Dr. Riordan. In this Phase I clinical trial (hereafter referred to as the Riordan trial), patients were administered continuous infusions using an infusion pump [See for example Ref 1]. In the Riordan Clinic trial, patients were treated by continuous infusion, which was administered over much longer periods of time than bolus intermittent treatments. For most patients, the duration of the continuous infusion was at least 20 hours, as the duration of bolus infusion is from one hour to three hours, depending on the dosage.
(§2) The trial lasted eight weeks and involved terminal patients with poor prognosis. Twenty-four (24) subjects were given continuous IVC at doses between 150 and 710 mg/kg/day (10-50 grams per day). Most of the patients had colon cancer with liver and lung metastasis and three patients had pancreatic or liver cancer. All patients had several chemotherapy/radiation treatments before entering the study.
(§3) Recently, previously unpublished parameters from the clinical study were analyzed, including blood chemistry and blood count parameters that are reportedly related to patient prognosis and degree of inflammation [See for example Ref 2]. This included: absolute neutrophil and lymphocyte counts and the neutrophil-to-lymphocyte ratio; lactate dehydrogenase, an enzyme involved in tumor initiation, metastasis, and recurrence; creatinine, the depletion of which is associated with cachexia; and glucose, as hyperglycemia is common in cancer patients.

terminal cancer patients [2] = test: Blood chemistry (lactate dehydrogenase, glucose) and survival in cancer patients on continuous IVC (updated analysis of Riordan trial); assay type: in vivo, human
Procedure: as §1, §2, §3

[3] = Plasma ascorbate during continuous IVC infusion (Riordan Phase I trial); assay type: in vivo, human; conditions: continuous infusion 150-710 mg/kg/day, cancer patients
Procedure: as §1, §2
The most obvious effect of IVC therapy was to increase patient vitamin C levels. […] In fact, ten out of twenty-four subjects entered the trial with plasma ascorbate concentrations undetectable by the colorimetric ascorbate assay used at that time, with another four having ascorbate concentrations below the normal range (FIG. 1). IVC infusion increased plasma levels to 1 mM. […]

terminal cancer patients [4] = conditions: 10 g/day continuous IV infusion for 10 days, then oral 10-30 g/day; 100 terminal cancer patients; cited from earlier work
terminal cancer patients [5] = test: Safety and adverse events of continuous IVC infusion (Riordan trial); assay type: in vivo, human
Procedure: as §1
The trial lasted eight weeks and involved terminal patients with poor prognosis. Twenty-four (24) subjects were given continuous IVC at doses between 150 and 710 mg/kg/day (10-50 grams per day). Most of the patients had colon cancer with liver and lung metastasis and three patients had pancreatic or liver cancer.

[6] = system: patients suffering from cancer; test: Pulse-press intravenous vitamin C protocol in cancer patients (Example 3); assay type: in vivo, human
Procedure: Intravenous vitamin C therapy is given by intermittent, high dose infusion that involves administering high-dose vitamin C (15-100 grams) over a 1-2 hour window and repeated twice weekly (every 2-4 days). The intermittent frequency of high-dose administration is referred to as a PULSED approach or as a PULSE dose.
As an adjunct to high-dose intermittent vitamin C infusions, experiments described herein have led to the developments of a method for administering continuous low to mid doses of vitamin C infusion using an elastomeric pump (non-electric) infusion pump over an 8 to 48 hour window. This method of continuous infusion targets a therapeutic dose anywhere between 4 to 50 grams of vitamin C per infusion window and is referred to as a PRESS approach or a PRESS dose.
The intravenous vitamin C+(IVC+) protocol for the treatment of cancer, and other chronic conditions, described herein combines the pulse approach with a press protocol into a PULSE-PRESS approach whereby vitamin C infusions alternate between a high-dose rapid infusion with a low to mid dose continuous infusion.
This clinical application of the IVC+ Protocol is centered on a 2-day cycle of a rapid PULSE infusion immediately followed by a PRESS continuous infusion at a rate of […] of Vitamin C per hour. Over the two week period, each pulse dose of vitamin C is increased to a therapeutic dose as outlined in the original Riordan IVC Protocol [See for example. Ref 1]. Each week back to back pulse-press doses are given followed by a final pulse dose leading into a rest period. These cyclic rest periods are important wherein they provide recovery time necessary for the patient to assimilate the oxidative stress generated within the body.
The protocol has been used on about six subjects to ascertain safety, feasibility and usability of the pump and in coordinating the process with existing therapies. The types of cancer for these patients varied.

[7] = rate of increase of LDH before vs after treatment
[8] = a patient suffering from cancer

## O=C1O[C@H]([C@@H](O)CO)C(O)=C1O [IVC, L-ascorbic acid]
Terminal cancer patients [1]; all patients with lymphocyte levels lower than normal range, continuous IVC
  median improvement in the lymphocyte count: 22%
Terminal cancer patients [1]; most of the patients
  neutrophil counts, tendency during treatment: normalization of the neutrophil counts
Terminal cancer patients [1]; one week before treatment vs during treatment, continuous IVC
  rate of growth (change) of neutrophil-to-lymphocyte ratio (NLR): tended to decrease the rate of growth of NLR; also recorded: rate of change was decreased
Terminal cancer patients [1]; patients for whom neutrophil counts are elevated
  neutrophil counts: reducing neutrophil counts
Terminal cancer patients [1]; patients in whom these numbers are below normal
  lymphocyte and neutrophil counts: increase lymphocyte and neutrophil counts
Terminal cancer patients [1]; patients with severe lymphopenia who completed treatment, continuous IVC
  median improvement in the lymphocyte count: 69%
Terminal cancer patients [2]; participants with initial LDH higher than normal range (LDH>245 U/L)
  median survival time: 95 days
Terminal cancer patients [2]; patients with concentrations higher than normal range
  blood glucose levels during IVC therapy: decreased
Terminal cancer patients [2]; [7]
  patients with LDH rate of growth decreased: 38 % of patients
  patients with LDH rate of growth increased: 28.6 % of patients
  patients with LDH rate of growth not changed: 33.4 % of patients
Terminal cancer patients [2]; subjects with normal initial LDH values
  median survival time: 173 days
[3]
  plasma ascorbate level reached during IVC infusion: 1 mM
Terminal cancer patients [4]
  survival time and quality of life versus patients who had not received IVC: increased survival time and improved quality of life
Terminal cancer patients [5]; considered possibly related to the ascorbate therapy
  Grade 3 adverse events: Most of the Grade 3 events involved hypokalemia
Terminal cancer patients [5]; continuous IVC infusion trial
  side effects, overall severity: mostly minor
Terminal cancer patients [5]; during therapy
  renal function indicators BUN and creatinine: remained relatively stable
  uric acid: decreased during therapy
Terminal cancer patients [5]; in vivo
  grade of the most common side effects: generally minor (Grade 1)
Terminal cancer patients [5]; of 24 subjects
  dry skin or mouth: 7 subjects
  edema: 7 subjects
  fatigue: 6 subjects
  injector port occlusion: 10 subjects
  nausea: 11 subjects
  subjects with BUN increases during therapy: four
[6]; [8]
  development of chemo resistance: no signs of the development of chemo resistance
  efficacy of treatment: appeared efficacious
  tolerability: well-tolerated
[6]; pulse press protocol, about six subjects, various cancers
  tolerability: well tolerated
